Here are results for one sequence from US20200190210A1, “NEW TARGET FOR TREATING CANCER” (TONGJI UNIVERSITY SUZHOU INSTITUTE BIOMEDICAL RESEARCH …, priority 2017, published 2020).

Assay [1] relates to MDAMB231-BoM-1833-TGL cells. As to the kind of experiment: Breast cancer metastasis mouse model (ventricular injection of tumor cells, in vivo imaging, survival). The settings on record: peptide injected from Day -1 every other day; for metastasis of breast cancer, peptide: mice, IgG negative control, FIGS. 11 and 12. The procedure: The day before the injection of tumor cells into mice was recorded as Day −1 of the experiment. On Day −1, the mice were fasted for 4 hours, injected with the desired concentration of FC17-7 antibody obtained in Example 1 or IgG (as a negative control), and given food after 2 hours. After the first injection, the mice were injected with antibodies every three days. On Day 0 of the experiment, MDAMB231-BoM-1833-TGL cells were blocked with antibodies according to the method of Example 4. After 6 hours, the cells were digested. The medium was removed, and the cells were washed with PBS once and resuspended in PBS to a concentration of 1×10^6 cells/ml. Then, mice were injected with 1×10^5 tumor cells/100 μl by ventricular injection to establish a mouse metastasis model. Every other week, the mice were subjected to in vivo imaging to record the fluorescence signal data. By establishing a breast cancer metastasis model, periodically administration of the monoclonal antibody FC17-7 prepared in Example 1 was performed in mice.
The day before the injection of tumor cells into mice was recorded as Day −1 of the experiment. On Day −1, the mice were fasted for 4 hours, and injected with the desired concentration of the extracellular loop 1 peptide of TM4SF1 prepared in Example 3 or IgG (as negative control), and given food after 2 hours. After the first injection of the peptide, the mice were injected with the peptide every other day. On Day 0 of the experiment, MDAMB231-BoM-1833-TGL cells were blocked with the peptide according to the method of Example 9. After 6 hours, the cells were digested. The medium was removed, and the cells were washed with PBS once, and resuspended in PBS to a concentration of 1×10^6 cells/ml. For the method of establishing a breast cancer metastasis mouse model, refer to the method in Example 7.

For assay [2], the target named is T1, interaction of TM4SF1 and DDR1 (Homo sapiens, UniProt P30408).
T1 construct: expressed in transfected cells; host or cells: 293FT cells
T1 sequence (P30408 1-202): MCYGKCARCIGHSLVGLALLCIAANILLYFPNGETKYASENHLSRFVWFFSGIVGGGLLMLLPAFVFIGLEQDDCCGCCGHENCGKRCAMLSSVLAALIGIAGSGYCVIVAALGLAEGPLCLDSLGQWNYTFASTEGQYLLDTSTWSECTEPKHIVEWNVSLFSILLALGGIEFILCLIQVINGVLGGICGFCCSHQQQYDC
As to the kind of experiment: Co-immunoprecipitation / Western Blotting of TM4SF1 and DDR1 co-overexpressed in 293FT cells, Collagen I stimulated. In kind it is cell-based. The settings on record: 293FT cells co-overexpressing TM4SF1 and DDR1, peptide overexpressed in 293FT cells and purified, Collagen I 10 μg/ml, 6 hours, FIG. 9. Here is the method: 293FT cells were cultured in DMEM-HG medium and digested with trypsin. The cells were counted and seeded at a density of 1×10^6 cells per dish in 6 cm (diameter) culture dish. The next day, 700 μl of serum-free DMEM-HG medium was respectively added to two centrifuge tubes. 10 μl of P-Pei transfection reagent was added to the first centrifuge tube. 1 μg PQCXIP-hTM4SF1 plasmid and 1 μg PQCXIN-hDDR1 plasmid were added to the second centrifuge tube and mixed well. The resultant from the second centrifuge tube was added to the first centrifuge tube and incubated for 20 min to obtain the transfection mixture. The culture medium of the 293FT cells seeded the day before was removed, and the transfection mixture above was added to the culture dish and incubated for 6 hours. Fresh medium was added to continue the culture. 48 hours after the transfection, the medium was removed, 2 ml of serum-free DMEM-HG medium containing a certain concentration of FC17-7 antibody obtained in Example 1 or IgG (as a negative control) was added. After incubating the culture dish at 37° C. for 5 minutes, Collagen I was added to the culture dish to a final concentration of 10 μg/ml. The cells were cultured for 6 hours and then collected. […] After the elution, the mixture was centrifuged at 3,000 rpm for 2 min to collect the supernatant, and the protein expression was detected by Western Blotting. […]
Background: Immunoblotting shows a protein as a band on a membrane.

Assay [3] relates to p-STAT3 (TM4SF1 associated non-classical DDR1 signaling pathway). As to the kind of experiment: Western Blotting of p-STAT3, TM4SF1 associated non-classical DDR1 signaling pathway, in cells overexpressing TM4SF1 and DDR1. The class given is cell-based, human. The settings on record: Collagen I 10 μg/ml, 12 hours, FIG. 10; for inhibition of P-STAT3 / downstream signal transduction (Western Blotting), peptide: cells overexpressing TM4SF1 and DDR1, PBS negative control. The procedure:
The transfection method has been described in Example 4. 48 hours after transfection, the medium was removed, 2 ml of serum-free DMEM-HG medium containing a certain concentration of FC17-7 antibody obtained in Example 1 or IgG (as a negative control) was added. After incubating the culture dish at 37° C. for 5 minutes, Collagen I was added to the culture dish to a final concentration of 10 μg/ml and cultured for 12 hours. The cells were collected and lysed with IP-RIPA buffer in a refrigerator at 4° C. for 1 h. The lysate was sonicated twice (15 s 30% power), then centrifuged at 12,000 rpm for 30 min. The supernatant was sampled to determine the protein concentration, and the protein concentration of each sample was adjusted to be the same. The sample was subjected to SDS-PAGE electrophoresis, and the proteins were transferred to a membrane by conventional way in Western Blotting, and then stained with the antibody.
The transfection method has been described in Example 4. 48 hours after transfection, the medium was removed, 2 ml of serum-free DMEM-HG medium containing a certain concentration of the extracellular loop 1 peptide of TM4SF1 prepared in Example 3 or PBS (as a negative control) was added. After incubating the culture dish at 37° C. for 5 minutes, Collagen I was added to the culture dish to a final concentration of 10 μg/ml. The cells were cultured for 12 hours and then collected. The cells were lysed with IP-RIPA buffer in a refrigerator at 4° C. for 1 h. The lysate was sonicated twice (15 s 30% power), and then centrifuged at 12,000 rpm for 30 min. The supernatant was sampled to determine the protein concentration, and the protein concentration of each sample was adjusted to be the same. The sample was subjected to SDS-PAGE electrophoresis, and the proteins were transferred to a membrane by a conventional way used in Western Blotting, and then stained with antibody.

The mark [4] stands for this setting: listed as small extracellular loop 1 peptide of TM4SF1.

In the case of “FPNGETKYASENHLSRC [extracellular loop 1 peptide of TM4SF1]”, the “metastasis of breast cancer, peptide” value in assay [1] was “significantly inhibit the metastasis of breast cancer”; in assay [1] (setting [4]) it was “significantly inhibits metastasis of breast cancer”. Further, the “survival time of the mice, peptide” value in assay [1] (FIG. 13) is given as “prolong the survival time of the mice”; in assay [1] (FIG. 13, listed as small extracellular loop 1 peptide of TM4SF1), “prolongs the survival mice”. Moreover, the “disruption of the interaction between TM4SF1 and DDR1 (co-immunoprecipitation), peptide” value in assay [2] was “significantly disrupt the interaction between TM4SF1 and DDR1”; in assay [2] (setting [4]), “disrupts the interaction between TM4SF1 and DDR1”. In addition, the “inhibition of P-STAT3 / downstream signal transduction (Western Blotting), peptide” value in assay [3] is on record as “began to inhibit P-STAT3”; in assay [3] (setting [4]), “inhibits downstream signal transduction”. Moreover, the “concentration at which the peptide began to inhibit P-STAT3” value in assay [3] (different concentrations of peptide, dose-dependent) stood at 9 µg/mL.
